Biological target: T1, recombinant human ALX receptor (Homo sapiens, UniProt P25090)
T1 construct: expressed in transfected cells; host or cells: HEK293
T1 sequence (P25090 1-351): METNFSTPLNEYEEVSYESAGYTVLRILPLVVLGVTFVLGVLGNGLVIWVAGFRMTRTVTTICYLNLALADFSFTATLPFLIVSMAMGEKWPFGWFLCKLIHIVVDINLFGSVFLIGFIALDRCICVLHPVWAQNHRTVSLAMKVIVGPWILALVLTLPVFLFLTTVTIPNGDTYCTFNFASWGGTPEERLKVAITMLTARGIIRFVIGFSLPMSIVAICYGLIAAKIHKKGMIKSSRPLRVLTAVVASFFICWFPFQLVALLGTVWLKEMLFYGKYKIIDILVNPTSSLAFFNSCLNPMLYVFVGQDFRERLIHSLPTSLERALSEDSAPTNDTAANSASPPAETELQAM
Test: Intracellular calcium measurements (FLIPR), ALX receptor agonistic activity
Assay type: cell-based
Settings: HEK293-hALXR-Gα16 cells; normalized to WKYMVm 10 nM; read-out: EC50 (agonistic activity with respect to the ALX receptor)
Protocol: The ALX receptor agonistic activity of the compounds of formula (I) is determined in accordance with the following experimental method.
Cells expressing recombinant human ALX receptor and the G-protein Gα16 (HEK293-hALXR-Gα16) were grown to 80% confluency in Growing Medium (GM). Cells were detached from culture dishes with a cell dissociation buffer (Invitrogen, 13151-014), and collected by centrifugation at 1′000 rpm at rt for 5 min in Assay Buffer (AB) (equal parts of Hank's BSS (Gibco, 14065-049) and DMEM without Phenol Red (Gibco, 11880-028)). After 60 min incubation at 37° C. under 5% CO2 in AB supplemented with 1 μM Fluo-4 (AM) (Invitrogen, F14202) and 20 mM HEPES (Gibco, 15630-056), the cells were washed and resuspended in AB. They were then seeded onto 384-well FLIPR assay plates (Greiner, 781091) at 50,000 cells in 70 μl per well and sedimented by centrifugation at 1,000 rpm for 1 min. Stock solutions of test compounds were made up at a concentration of 10 mM in DMSO, and serially diluted in AB to concentrations required for activation dose response curves. WKYMVm (Phoenix Peptides) was used as a reference agonist. […] Changes in fluorescence were monitored before and after the addition of test compounds at lex=488 nm and lem=540 nm. […]

- EC50: 4 nM
SMILES: Cc1ccc(C2(NC(=O)C3C(C(=O)NCCCCN4CCCC4)C4CCC3C43CC3)CC2)cc1 [Example 1, (5R)-N^5-(1-(p-tolyl)cyclopropyl)-(6R)-N^6-(4-(pyrrolidino)butyl)-(4S,7R)-[4,7-ethylene-spiro[2.4]heptane]-5,6-dicarboxamide]

— patent US9284288B2, “1-(p-tolyl) cyclopropyl substituted bridged spiro[2.4]heptane derivatives as ALX receptor agonists” (Actelion Pharmaceuticals Ltd., priority 2012, dated 2016)
